Earlier results on 1 molecule are cited in publication PMC9268243, “Metabolic Behaviors of Aconitum Alkaloids in Different Concentrations of Aconiti Lateralis Radix Praeparata and Effects of Aconitine in Healthy Human and Long QT Syndrome Cardiomyocytes” (Molecules, 2022).

Read-outs that look alike come from different tables or passages of the source.

The test system of the data set is rats. The settings on record: cited from earlier work.

For `CCN1C[C@]2(COC)[C@H](O)C[C@H](OC)[C@@]34[C@@H]5C[C@@]6(O)[C@H](OC(=O)c7ccccc7)[C@@H]5[C@@](OC(C)=O)([C@@H]([C@H](OC)[C@H]23)[C@@H]14)[C@@H](O)[C@@H]6OC` [AC, aconitine], the toxic cardiovascular effects entry reads like this: (oral 0.4 mg/kg) “arrhythmia, lower heart rate, and blood pressure, were observed”; (oral low-dose 0.1 mg/kg) “not found”.
